Experimental data: patent publication US4981872A, “Prostaglandin derivatives, their preparation and their therapeutic use” (Sankyo Company Limited, priority 1987, dated 1991)
In brackets after ≈: the same amount, converted by molar mass.

Assays:
[1] = test system: blood platelet aggregation; test: Inhibition of blood platelet aggregation in vitro (adenosine diphosphate-induced, Born's method); type: cell-based, Japanese white rabbit; conditions: Oryctolagus cuniculus, rabbit PRP/PPP mixture, ADP 5μM
Description: Inhibition of blood platelet aggregation in vitro
One part by volume of blood from a Japanese white rabbit was mixed immediately after removal with one tenth of its volume of a 3.8% w/v aqueous solution of sodium citrate. The mixture was then centrifuged at 95×G for 15 minutes at room temperature to obtain a platelet-rich plasma (PRP) as the upper layer. The remaining blood sample was then centrifuged for a further 15 minutes at 1000×G to obtain a platelet poor plasma (PPP). By mixing appropriate amounts of the PRP and the PPP, the final platelet count of the mixture was adjusted to 6×105 per μ, platelet aggregation was determined by Born's method [G. V. R. Born: J. Physiol. 62, 67-68 (1962)] by increases in transparency of the test liquid using a platelet aggregometer 25 μl of a solution of the test compound were added to 250 μof the mixture of PRP and PPP and then two minutes after mixing the solutions 25 μl of a liquid containing adenosine diphosphate at a concentration of 5μM were added.
The inhibition of platelet aggregation was assessed by comparing the increase in the amount of light transmitted through the test sample treated platelet-rich plasma with a control platelet-rich plasma which had been treated in the same way, except that the test compound was replaced by physiological saline.

[2] = test system: ethanol-induced gastric ulcers; test: Effects on ethanol-induced gastric ulcers (inhibition of gastric mucosal lesions, oral); type: in vivo, male rats of the Sprague-Dawley strain; conditions: p.o., 1 hour before 1 ml absolute ethanol, rat, ID50 of gastric mucosal lesions, read-out: Anti-ulcer activity (ID50, p.o.)
Description: Effects on ethanol-induced qastric ulcers
The test animals used were male rats of the Sprague-Dawley strain each having a body weiqht of about 180-200 g, prior to use in this experiment they were starved for about 42 hours. At the end of this time, each animal was orally administered one of the test compounds shown in the following Table 3. in which the compounds are identified by the number of the foregoing Example in which they were prepared. One hour after administration, gastric mucosal lesions were induced by the oral administration of 1 ml of absolute ethanol. One hour after this administration, the animals were sacrificed with dry ice, and their stomachs were removed and fixed with formalin. The area (mm^2) of the mucosal lesions induced on the gastric mucosa by the ethanol was measured by a video image processor and the inhibition of gastric mucosal lesions by each test compound was calculated in terms of the ID50, by comparison with the results achieved from control animals which had been treated as described above, except that no anti ulcer compound was administered and from the results achieved from the test compounds at various levels of administration.
As a control, there was used the following prior art 6-oxo compound (ORNOPROSTIL): [drawing 12]

SMILES | IC50 [1] [µg/mL] | ED50 [2] [µg/kg]
CCCCC(C)(C)[C@H](O)/C=C/[C@H]1[C@H](O)CC(=O)[C@@H]1CCCC(=O)CCC(=O)OC [Ex. 31, Methyl 4,9-dioxo-11α,15α-dihydroxy-16,16-dimethylprost 13(E) enoate] | > 10 | 4.91
COC(=O)CCC(=O)CCC[C@H]1C(=O)C[C@@H](O)[C@@H]1/C=C/[C@@H](O)COc1ccccc1 [Ex. 30, Methyl 4,9-dioxo-11α,15α-dihydroxy-16-phenoxy17,18,19,20-tetranprprost 13(E)-enoate] | > 10 | 3.7
CCCC[C@H](C)C[C@H](O)/C=C/[C@H]1[C@H](O)CC(=O)[C@@H]1CC(=O)CCCCC(=O)OC [Control, reference compound] | 0.0019 (≈ 0.00463 µM) | 0.2

Second part, led by results:

IC50 [1] [µg/mL] | SMILES | ED50 [2] [µg/kg]
> 10 | COC(=O)CCCC(=O)CC[C@H]1C(=O)C[C@@H](O)[C@@H]1/C=C/[C@@H](O)COc1ccccc1 [Ex. 1, 5-Oxo-16-phenoxy-17,18,19,20-tetranorprostaglandin E1 methyl ester] | 2.94
> 10 | COC(=O)CCCC(=O)CC[C@H]1C(=O)C[C@@H](O)[C@@H]1/C=C/[C@@H](O)COc1ccc(Cl)cc1 [Ex. 11, 5-Oxo-16-p-chlorophenoxy-17,18,19,20-tetranorprostaglandin E1 methyl ester] | 0.49
